Like-named read-outs stand apart in the source and are kept apart here.
What was measured:
[1] = tested on: mouse peritoneal macrophages; settings: mean ± S.E.M. (n = 4), cited from earlier work
[2] = tested on: LPS-activated NO production in mouse peritoneal macrophages; settings: cited from earlier work; for Inhibition (%) of LPS-activated NO production: mean ± S.E.M. (n = 4); for IC50: mouse peritoneal macrophages, read-out: IC50, inhibition of LPS-activated NO production
[3] = tested on: primary cultured mouse hepatocytes; assay: D-GalN-induced cytotoxicity in primary cultured mouse hepatocytes (MTT assay); settings: Hepatocyte, read-out: Inhibition (%) of D-GalN-induced cytotoxicity
Method: Assay for the D-GalN-induced cytotoxicity in primary cultured mouse hepatocytes was performed as described previously [33, 35, 36].

[4] = tested on: D-GalN/LPS-induced liver injury in mice; assay: D-GalN/LPS-induced liver injury in mice; type: in vivo, mouse; settings: p.o.; for Mortality: dead/total; for sALT / sAST: mean ± S.E.M.
Method: Male ddY mice (Kiwa Laboratory Animal Co., Ltd., Wakayama, Japan) were housed at a constant temperature of 23 ± 2°C and were fed a standard laboratory chow (MF, Oriental Yeast Co., Ltd., Tokyo, Japan). The animals were fasted for 24 h prior to the beginning of the experiment but were allowed free access to tap water. All experiments were performed with conscious mice unless otherwise noted. The experimental protocol was approved by the Experimental Animal Research Committee of Kindai University (KAPR-26-001, 1 April 2014).
The method described by Tiegs et al. was modified and used for this study. Curcumin [36] and silybin were used as reference compounds.

[5] = tested on: L929 cells; assay: TNF-α-induced cytotoxicity in L929 cells (MTT assay); type: cell-based; settings: Mus musculus; for inhibition at 1 µM / inhibition at 3 µM / inhibition at 10 µM / inhibition at 30 µM: read-out: Inhibition (%) of TNF-α-induced cytotoxicity
Method: The effects of the limonoids (1–17) on the sensitivity of hepatocytes to TNF-α were assessed by measuring TNF-α-induced decreases in the viability of L929 cells, a TNF-α-sensitive cell line, by using the MTT assay. In the absence of a test sample, the cells incubated with 1 ng/mL TNF-α for 44 h were compared with those not incubated with TNF-α.
Assay for the TNF-α-induced cytotoxicity in L929 cells was performed as described previously. Silybin was used as a reference compound [36].

[6] = 10 µM, # = cytotoxic effects were observed
[7] = 30 µM, # = cytotoxic effects were observed
[8] = 100 µM, # = cytotoxic effects were observed
[9] = L929, 1 µM, 1 ng/mL TNF-α, 44 h, mean ± S.E.M. (n = 4)
[10] = L929, 3 µM, 1 ng/mL TNF-α, 44 h, mean ± S.E.M. (n = 4)
[11] = L929, 10 µM, 1 ng/mL TNF-α, 44 h, mean ± S.E.M. (n = 4)
[12] = L929, 30 µM, 1 ng/mL TNF-α, 44 h, mean ± S.E.M. (n = 4)

Row | SMILES | cell viability (%) in MTT assay (values in parentheses) ([1]; 3 µM) [%] | cell viability (%) in MTT assay (values in parentheses) [1, 8] [%] | Inhibition (%) of LPS-activated NO production ([2]; 3 µM) [%] | Inhibition (%) of LPS-activated NO production ([2]; 10 µM) [%] | Inhibition (%) of LPS-activated NO production ([2]; 30 µM) [%] | Inhibition (%) of LPS-activated NO production ([2]; 100 µM) [%] | IC50 [2] [µM] | inhibition at 3 µM [3] [%] | inhibition at 10 µM [3] [%] | inhibition at 30 µM [3] [%] | inhibition at 100 µM [3] [%] | cell viability (%) in MTT assay (values in parentheses) ([1]; 10 µM) [%] | cell viability (%) in MTT assay (values in parentheses) ([1]; 30 µM) [%] | sALT Inhibition (%) ([4]; 25 mg/kg) | sAST Inhibition (%) ([4]; 25 mg/kg) | Mortality ([4]; 25 mg/kg) | sALT ([4]; 25 mg/kg) [Karmen Unit] | sAST ([4]; 25 mg/kg) [Karmen Unit] | sALT Inhibition (%) ([4]; 50 mg/kg) | sAST Inhibition (%) ([4]; 50 mg/kg) | other results
1 | O=C(/C=C/c1ccc(O)c(O)c1)OCCc1ccccc1 [CAPE, caffeic acid phenethyl ester, reference compound] | 95.4 ± 0.7 | 53.0 ± 1.4 | 5.9 ± 5.2 | 44.4 ± 3.2 | 86.2 ± 1.1 | 99.6 ± 0.1 | 11 |  |  |  |  |  |  |  |  |  |  |  |  |  | cell viability (%) in MTT assay (values in parentheses) [1, 6]: 70.0 ± 4.0%; cell viability (%) in MTT assay (values in parentheses) [1, 7]: 71.4 ± 6.0%
2 | [H]/N=C(/NC)NCCC[C@H](N)C(=O)O [L-NMMA, N^G-monomethyl-L-arginine, reference compound] | 101.1 ± 5.7 | 106.4 ± 4.6 | 1.4 ± 2.8 | 19.9 ± 2.8 | 43.0 ± 2.1 | 70.9 ± 1.6 | 36 |  |  |  |  |  |  |  |  |  |  |  |  |  | cell viability (%) in MTT assay (values in parentheses) [1, 6]: 100.7 ± 6.2%; cell viability (%) in MTT assay (values in parentheses) [1, 7]: 102.6 ± 4.2%
3 | CC(=O)O[C@@H]1C[C@H]2C(C)(C)C(=O)C=C[C@]2(C)[C@H]2CC[C@@]3(C)[C@H](c4ccoc4)OC(=O)[C@H]4O[C@]43[C@@]21C [compound 1, gedunin] | 102.2 ± 5.3 | 3.0 ± 0.4 | 25.1 ± 2.5 | 84.5 ± 2.3 | 101.8 ± 0.6 | 100.9 ± 0.4 | 4.6 | -8.4 ± 1.9 | -3.9 ± 0.4 | -3.2 ± 0.9 | -5.2 ± 0.2 | 119.5 ± 5.3 | 94.8 ± 1.4 | 65.7 | 56.2 | 0/7 | 2950 ± 710 | 2304 ± 651 | 67.2 | 63.5 | Mortality ([4]; 50 mg/kg): 0/7; sALT ([4]; 50 mg/kg): 2824 ± 754 Karmen Unit; sAST ([4]; 50 mg/kg): 1923 ± 576 Karmen Unit; inhibition at 1 µM [5, 9]: 4.5 ± 1.9%; inhibition at 3 µM [5, 10]: 21.8 ± 3.7%; inhibition at 10 µM [5, 11]: 38.1 ± 3.8%; inhibition at 30 µM [5, 12]: 36.5 ± 4.1%
4 | CC(=O)O[C@@H]1C2C(C)(C)C(=O)C=C[C@]2(C)C2CC[C@@]3(C)[C@H](c4ccoc4)OC(=O)[C@H]4O[C@]43[C@]2(C)[C@@H]1OC(C)=O (stereo partly drawn) [compound 2, 6α-acetoxygedunin] | 96.8 ± 1.2 | 53.6 ± 5.1 | 16.9 ± 1.7 | 67.6 ± 4.6 | 88.4 ± 3.5 | 99.6 ± 0.2 | 7.9 | -2.6 ± 1 | -1.9 ± 0.3 | -2.5 ± 0.7 | -1.8 ± 0.6 | 102.3 ± 2.2 | 92.5 ± 1.7 | 63.7 | 54.7 | 0/7 | 3120 ± 830 | 2384 ± 579 | 72.2 | 67.9 | Mortality ([4]; 50 mg/kg): 0/7; sALT ([4]; 50 mg/kg): 2397 ± 873 Karmen Unit; sAST ([4]; 50 mg/kg): 1696 ± 580 Karmen Unit; inhibition at 1 µM [5, 9]: 10.9 ± 1%; inhibition at 3 µM [5, 10]: 23.2 ± 1.8%; inhibition at 10 µM [5, 11]: 36.3 ± 2.1%; inhibition at 30 µM [5, 12]: 37.3 ± 1.4%
5 | CC1(C)C(=O)C=C[C@@]2(C)C1CC(=O)[C@]1(C)C2CC[C@@]2(C)[C@H](c3ccoc3)OC(=O)[C@H]3O[C@]321 (stereo partly drawn) [compound 3, 7-deacetoxy-7-oxogedunin] | 100.3 ± 3.9 | 83.7 ± 1.2 | 7.4 ± 5.2 | 40.9 ± 4.7 | 94.0 ± 0.8 | 88.1 ± 2.1 | 12.8 | -4.6 ± 0.5 | -8.2 ± 0.9 | -8.3 ± 1.1 | -8.9 ± 0.6 | 98.9 ± 3.2 | 98.8 ± 7.4 | 66.3 | 60.3 | 0/7 | 2899 ± 1024 | 2093 ± 742 | 70.2 | 66.7 | Mortality ([4]; 50 mg/kg): 1/7; sALT ([4]; 50 mg/kg): 2572 ± 903 Karmen Unit; sAST ([4]; 50 mg/kg): 1759 ± 579 Karmen Unit; IC50 ([5]; L929, 44 h, read-out: IC50, inhibition of TNF-α-induced decrease in cell viability): 7.3 µM; inhibition at 1 µM ([5]; L929, 44 h): 5.8 ± 1.5%; inhibition at 3 µM ([5]; L929, 44 h): 26.7 ± 4.5%; inhibition at 10 µM ([5]; L929, 44 h): 58.6 ± 7.2%; inhibition at 30 µM ([5]; L929, 44 h): 68.7 ± 4.8%
6 | CC1(C)C(=O)C=C[C@@]2(C)C1C[C@@H](O)[C@]1(C)C2CC[C@@]2(C)[C@H](c3ccoc3)OC(=O)[C@H]3O[C@]321 (stereo partly drawn) [compound 4, 7-deacetoxy-7α-hydroxygedunin] | 110.3 ± 5.9 | 2.6 ± 0.5 | 15.7 ± 4.6 | 55.7 ± 4.0 | 98.8 ± 0.4 | 100.2 ± 0.2 | 8.7 | -2 ± 1.4 | -6.3 ± 0.5 | -8 ± 0.4 | -4.1 ± 0.7 | 106.6 ± 3.1 | 96.3 ± 4.6 |  |  |  |  |  |  |  | inhibition at 3 µM ([5]; L929, 44 h): -6.5 ± 2.4%; inhibition at 10 µM ([5]; L929, 44 h): 2.7 ± 2.3%; inhibition at 30 µM ([5]; L929, 44 h): 36.5 ± 1.8%
7 | CC(=O)O[C@@H]1[C@H](O)C2C(C)(C)C(=O)C=C[C@]2(C)C2CC[C@@]3(C)[C@H](c4ccoc4)OC(=O)[C@H]4O[C@]43[C@@]21C (stereo partly drawn) [compound 6, 6α-hydroxygedunin] | 88.4 ± 3.0 | 82.2 ± 4.2 | 7.7 ± 7.1 | 20.7 ± 4.3 | 64.0 ± 3.1 | 97.3 ± 0.3 | 19.1 | -7.2 ± 2.4 | -9.4 ± 0.8 | -0.1 ± 0.7 | -2.8 ± 0.5 | 87.6 ± 4.0 | 90.4 ± 2.6 |  |  |  |  |  |  |  | inhibition at 1 µM [5, 9]: 8.1 ± 1.9%; inhibition at 3 µM [5, 10]: 6.7 ± 1.5%; inhibition at 10 µM [5, 11]: 12.1 ± 3%; inhibition at 30 µM [5, 12]: 28.3 ± 1.7%
8 | C=C1[C@@H]2CC[C@@]3(C)[C@H](c4ccoc4)OC(=O)C[C@]13O[C@H]1CC(=O)C(C)(C)[C@H](CC(=O)OC)[C@]12C [compound 7, methyl angolensate] | 108.8 ± 11.0 | 78.1 ± 5.3 | 10.1 ± 4.2 | 20.0 ± 8.1 | 42.2 ± 3.5 | 24.0 ± 4.2 | > 100 | -2.1 ± 1.2 | -7.5 ± 0.9 | -6.3 ± 0.7 | -6.6 ± 1 | 108.8 ± 5.5 | 111.0 ± 4.5 |  |  |  |  |  |  |  | inhibition at 1 µM ([5]; L929, 44 h): -0.5 ± 3.5%; inhibition at 3 µM ([5]; L929, 44 h): 0.6 ± 2.9%; inhibition at 10 µM ([5]; L929, 44 h): 13.3 ± 2.6%; inhibition at 30 µM ([5]; L929, 44 h): 24.6 ± 2.9%
